Active and inactive are the calls of the source.
Assays:
Aspartyl aminopeptidase = Aspartyl aminopeptidase (Plasmodium falciparum 3D7, UniProt Q8I2J3); test: Counterscreen for inhibitors of M1 and M17 aminopeptidases: QFRET-based biochemical high throughput dose response assay for inhibitors of the Plasmodium falciparum M18 Aspartyl Aminopeptidase (PFM18AAP). [Related PubChem assays: 1619 (Screening assay (M17LAP inhibitors).), 1445 (Screening assay (M1AAP inhibitors).)]
Protein RecA = target: T1, Protein RecA (Mycobacterium tuberculosis, UniProt P9WHJ3); test: Fluorescence Cell-Free Homogeneous Dose Retest to Identify Inhibitors of RecA-Intein Splicing Activity. [Related pubchem assays (depositor defined):AID2097, AID2223, AID489010, AID492950]; type: functional
T1 sequence (P9WHJ3 whole entry): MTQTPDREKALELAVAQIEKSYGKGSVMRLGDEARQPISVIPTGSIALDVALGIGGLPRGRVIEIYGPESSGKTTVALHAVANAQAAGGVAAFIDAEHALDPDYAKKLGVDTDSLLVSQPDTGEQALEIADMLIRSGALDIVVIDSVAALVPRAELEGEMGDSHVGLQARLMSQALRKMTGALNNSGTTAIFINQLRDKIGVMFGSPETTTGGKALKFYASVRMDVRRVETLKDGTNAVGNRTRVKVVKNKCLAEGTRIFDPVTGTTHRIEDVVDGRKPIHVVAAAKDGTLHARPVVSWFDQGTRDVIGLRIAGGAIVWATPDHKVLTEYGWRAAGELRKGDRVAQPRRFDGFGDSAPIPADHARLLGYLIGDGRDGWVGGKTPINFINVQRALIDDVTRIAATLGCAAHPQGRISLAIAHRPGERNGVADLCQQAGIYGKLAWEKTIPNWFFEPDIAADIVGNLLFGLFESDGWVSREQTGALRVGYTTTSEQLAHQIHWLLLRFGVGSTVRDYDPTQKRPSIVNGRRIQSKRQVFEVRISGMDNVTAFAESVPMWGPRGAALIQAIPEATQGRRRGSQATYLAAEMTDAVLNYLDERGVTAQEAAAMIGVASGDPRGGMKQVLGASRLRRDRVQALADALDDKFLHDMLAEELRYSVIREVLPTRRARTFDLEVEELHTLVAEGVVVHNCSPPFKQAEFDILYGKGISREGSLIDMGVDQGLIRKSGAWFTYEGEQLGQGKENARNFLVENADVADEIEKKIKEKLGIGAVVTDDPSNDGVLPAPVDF

Leucine aminopeptidase = target: T2, Leucine aminopeptidase (Plasmodium falciparum 3D7, UniProt Q8IL11); test: P. falciparum M17LAP inhibitors, primary screen, biochemical, fluorogenic H-Leu-NHMec substrate, 1536-well (AID 1619); type: functional
T2 sequence (Q8IL11 whole entry): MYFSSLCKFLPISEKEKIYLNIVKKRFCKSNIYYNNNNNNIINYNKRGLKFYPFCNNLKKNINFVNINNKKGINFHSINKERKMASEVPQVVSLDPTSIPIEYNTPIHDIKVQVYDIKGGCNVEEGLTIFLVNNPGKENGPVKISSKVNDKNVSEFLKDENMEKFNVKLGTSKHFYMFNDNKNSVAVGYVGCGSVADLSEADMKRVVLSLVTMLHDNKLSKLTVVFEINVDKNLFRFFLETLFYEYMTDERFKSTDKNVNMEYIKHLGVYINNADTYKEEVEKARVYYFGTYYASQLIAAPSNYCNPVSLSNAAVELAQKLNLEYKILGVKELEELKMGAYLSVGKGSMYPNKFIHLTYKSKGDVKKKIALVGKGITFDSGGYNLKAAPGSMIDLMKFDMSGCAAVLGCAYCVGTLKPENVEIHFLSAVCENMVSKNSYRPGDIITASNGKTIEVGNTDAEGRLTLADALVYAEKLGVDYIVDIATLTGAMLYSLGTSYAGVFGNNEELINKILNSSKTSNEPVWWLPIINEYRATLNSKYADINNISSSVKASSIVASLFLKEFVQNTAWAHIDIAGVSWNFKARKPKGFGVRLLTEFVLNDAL

[1] = target: T3, Replicative DNA helicase DnaB (Mycobacterium tuberculosis, UniProt P9WMR3); test: DnaB intein splicing inhibitors, dose response, biochemical, cell-free fluorescence (AID 449749); type: functional
T3 sequence (P9WMR3 whole entry): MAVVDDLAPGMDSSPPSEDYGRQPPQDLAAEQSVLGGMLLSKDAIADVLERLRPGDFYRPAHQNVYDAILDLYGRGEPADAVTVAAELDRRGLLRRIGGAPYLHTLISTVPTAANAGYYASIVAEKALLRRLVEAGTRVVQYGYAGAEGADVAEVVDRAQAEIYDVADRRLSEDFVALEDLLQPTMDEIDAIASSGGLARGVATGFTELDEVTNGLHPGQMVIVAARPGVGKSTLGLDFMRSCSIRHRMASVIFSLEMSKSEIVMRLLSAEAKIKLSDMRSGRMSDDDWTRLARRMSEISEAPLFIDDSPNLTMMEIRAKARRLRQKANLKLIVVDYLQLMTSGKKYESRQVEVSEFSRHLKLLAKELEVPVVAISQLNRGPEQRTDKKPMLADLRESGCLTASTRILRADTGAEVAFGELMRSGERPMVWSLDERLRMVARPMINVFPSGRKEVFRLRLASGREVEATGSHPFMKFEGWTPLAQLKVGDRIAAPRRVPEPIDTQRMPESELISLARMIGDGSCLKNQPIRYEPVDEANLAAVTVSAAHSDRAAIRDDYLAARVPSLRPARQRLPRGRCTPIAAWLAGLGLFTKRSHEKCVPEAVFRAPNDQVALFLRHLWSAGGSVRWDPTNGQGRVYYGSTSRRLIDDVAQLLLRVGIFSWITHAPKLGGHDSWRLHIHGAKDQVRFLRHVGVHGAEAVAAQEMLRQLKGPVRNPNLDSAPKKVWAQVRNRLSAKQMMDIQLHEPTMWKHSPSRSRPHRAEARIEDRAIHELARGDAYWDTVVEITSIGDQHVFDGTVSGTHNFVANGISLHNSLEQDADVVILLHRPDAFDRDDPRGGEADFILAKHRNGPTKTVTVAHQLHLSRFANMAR

Procathepsin L = Procathepsin L (Homo sapiens, UniProt P07711); test: CTSL1 protease inhibition – biochemical, QFRET, 1536-well, counter-screen for M1/M17 aminopeptidase inhibitor project, dose response (AID 2214)
Procathepsin L, sequence (P07711 whole entry): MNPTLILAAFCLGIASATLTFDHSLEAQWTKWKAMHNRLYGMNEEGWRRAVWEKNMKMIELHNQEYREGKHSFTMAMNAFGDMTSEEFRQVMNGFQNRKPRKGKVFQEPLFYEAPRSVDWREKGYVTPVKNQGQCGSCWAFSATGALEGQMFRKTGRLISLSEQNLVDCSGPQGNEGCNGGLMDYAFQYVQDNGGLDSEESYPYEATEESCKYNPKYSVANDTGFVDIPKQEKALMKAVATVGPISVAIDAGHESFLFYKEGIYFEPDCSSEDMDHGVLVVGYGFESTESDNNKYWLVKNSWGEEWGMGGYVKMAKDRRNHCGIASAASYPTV

Vero = test: viability of Vero cells under compound – cytotoxicity control for flavivirus capping enzyme inhibitors (AID 588742); type: functional; details: Chlorocebus sabaeus
[2] = target: T4, Probable nicotinate-nucleotide adenylyltransferase (Staphylococcus aureus (strain N315), UniProt P65502); type: functional, Staphylococcus aureus subsp. aureus N315;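 as to IC50 Mean: confirmatory dose-response retesting of NadD inhibitor hits first found in an ultra-high-throughput screen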
T4 sequence (P65502 whole entry): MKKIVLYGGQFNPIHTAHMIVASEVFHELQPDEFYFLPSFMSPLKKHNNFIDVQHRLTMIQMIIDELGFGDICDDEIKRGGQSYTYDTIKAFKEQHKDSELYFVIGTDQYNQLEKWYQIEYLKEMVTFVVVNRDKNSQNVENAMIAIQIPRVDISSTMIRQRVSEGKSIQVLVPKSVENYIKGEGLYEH

[3] = target: Voltage-gated inwardly rectifying potassium channel KCNH2 (Homo sapiens, UniProt Q12809); test: concentration-dependent hERG rescue from blockers – cell-based, thallium flux, dose response (AID 2121); type: ADME
[4] = Counterscreen for activators of the function of SWI/SNF related, matrix associated, actin dependent regulator of chromatin, subfamily a, member 2 (SMARCA2, BRM): Luminescence-based cell-based high throughput dose response assay to identify non-selective compounds using the VP16 reporter assay.; type: functional
[5] = target: SWI/SNF-related matrix-associated actin-dependent regulator of chromatin subfamily A member 2 (Homo sapiens, UniProt P51531); test: Luminescence-based cell-based high throughput dose response assay to identify activators of the function of SWI/SNF related, matrix associated, actin dependent regulator of chromatin, subfamily a, member 2 (SMARCA2, BRM).; type: functional
SWI/SNF-related matrix-associated actin-dependent regulator of chromatin subfamily A member 2, sequence (P51531 whole entry): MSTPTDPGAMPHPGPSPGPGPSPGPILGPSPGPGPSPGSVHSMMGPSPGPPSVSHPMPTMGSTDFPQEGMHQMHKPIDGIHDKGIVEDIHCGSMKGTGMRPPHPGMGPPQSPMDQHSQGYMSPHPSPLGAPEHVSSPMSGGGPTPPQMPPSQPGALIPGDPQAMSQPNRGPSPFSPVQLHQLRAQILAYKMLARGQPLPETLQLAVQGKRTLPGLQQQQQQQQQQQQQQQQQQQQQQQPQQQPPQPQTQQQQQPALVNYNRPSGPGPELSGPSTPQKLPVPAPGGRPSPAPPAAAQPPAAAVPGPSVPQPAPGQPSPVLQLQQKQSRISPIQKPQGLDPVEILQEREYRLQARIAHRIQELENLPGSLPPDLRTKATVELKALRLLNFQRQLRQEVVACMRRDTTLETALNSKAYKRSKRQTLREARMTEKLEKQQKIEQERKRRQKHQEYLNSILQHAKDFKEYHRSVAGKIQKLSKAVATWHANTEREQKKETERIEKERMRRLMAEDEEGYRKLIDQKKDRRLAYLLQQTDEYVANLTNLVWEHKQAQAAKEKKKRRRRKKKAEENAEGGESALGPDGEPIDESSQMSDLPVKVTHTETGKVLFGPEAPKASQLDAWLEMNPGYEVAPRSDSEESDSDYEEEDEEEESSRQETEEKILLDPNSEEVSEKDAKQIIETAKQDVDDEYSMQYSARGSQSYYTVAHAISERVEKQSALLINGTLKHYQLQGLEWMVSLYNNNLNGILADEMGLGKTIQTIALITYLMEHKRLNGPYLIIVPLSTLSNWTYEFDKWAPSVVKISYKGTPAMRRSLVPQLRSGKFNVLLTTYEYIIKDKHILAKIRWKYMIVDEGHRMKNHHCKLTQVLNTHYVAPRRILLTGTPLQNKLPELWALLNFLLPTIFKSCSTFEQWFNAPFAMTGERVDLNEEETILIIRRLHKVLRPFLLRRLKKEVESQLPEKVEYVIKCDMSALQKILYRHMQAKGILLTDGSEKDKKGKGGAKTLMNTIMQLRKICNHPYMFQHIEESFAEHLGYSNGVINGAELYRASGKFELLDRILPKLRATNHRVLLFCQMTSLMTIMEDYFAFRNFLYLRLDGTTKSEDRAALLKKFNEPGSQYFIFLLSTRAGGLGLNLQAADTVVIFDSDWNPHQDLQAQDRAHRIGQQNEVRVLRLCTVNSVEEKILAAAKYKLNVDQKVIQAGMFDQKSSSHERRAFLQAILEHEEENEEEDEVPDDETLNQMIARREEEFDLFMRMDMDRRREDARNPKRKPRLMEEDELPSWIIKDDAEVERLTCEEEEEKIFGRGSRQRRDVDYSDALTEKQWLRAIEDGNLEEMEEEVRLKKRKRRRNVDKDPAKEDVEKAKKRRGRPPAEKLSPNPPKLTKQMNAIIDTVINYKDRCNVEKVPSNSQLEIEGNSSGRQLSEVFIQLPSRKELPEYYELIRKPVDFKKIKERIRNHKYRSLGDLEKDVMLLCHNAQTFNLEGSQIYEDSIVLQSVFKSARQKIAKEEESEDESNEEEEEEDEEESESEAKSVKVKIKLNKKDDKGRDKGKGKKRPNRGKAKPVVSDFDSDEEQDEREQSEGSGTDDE

[6] = target: T4, Probable nicotinate-nucleotide adenylyltransferase; type: functional, Staphylococcus aureus subsp. aureus N315; details: read-out: IC50_Mean
14-3-3 protein gamma = 14-3-3 protein gamma (Homo sapiens, UniProt P61981); test: modulators of 14-3-3 gamma client binding – dose response (AID 711); type: functional
14-3-3 protein gamma, sequence (P61981 whole entry): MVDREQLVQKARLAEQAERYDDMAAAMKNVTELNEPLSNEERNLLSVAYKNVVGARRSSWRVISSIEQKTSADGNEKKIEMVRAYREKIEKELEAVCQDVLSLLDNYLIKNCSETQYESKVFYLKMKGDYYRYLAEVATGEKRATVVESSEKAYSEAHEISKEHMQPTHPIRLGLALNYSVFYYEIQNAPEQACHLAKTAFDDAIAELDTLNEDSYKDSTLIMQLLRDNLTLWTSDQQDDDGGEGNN

[7] = A High Throughput Confirmatory Assay used to Identify Novel Compounds that Inhibit Mycobacterium Tuberculosis in the absence of Glycerol.; type: functional
[8] = M. tuberculosis growth inhibition, HTS (AID 449762); type: functional
Genome polyprotein = Genome polyprotein (Hepatitis C virus, UniProt Q2Q167); test: disruption of hepatitis C core self-association – biochemical, TR-FRET, dose response (AID 2159); design: species or system Hepacivirus hominis;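 also: blocks dimerization of HCV core protein measured by TR-FRET between tagged core106 pairs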
Genome polyprotein, sequence (Q2Q167 whole entry): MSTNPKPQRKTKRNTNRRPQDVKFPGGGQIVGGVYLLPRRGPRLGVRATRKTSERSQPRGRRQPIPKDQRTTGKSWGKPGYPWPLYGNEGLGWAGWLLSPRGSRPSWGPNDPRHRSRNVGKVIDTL

[9] = Luminescence Cell-Based Dose Confirmation HTS to Identify Inhibitors of Polyadenylation.; type: functional
[10] = HPDE-C7 pancreatic duct cell viability loss – fluorescence, HTS (AID 430); type: functional, cell-based; details: Homo sapiens
[11] = target: Protein-tyrosine kinase 2-beta (Homo sapiens, UniProt Q14289);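 also: potency of inhibitors of PYK2 kinase phosphorylation of poly-GT substrate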
[12] = non-specific 3'UTR reporter inhibition in Clone20-Shn3RL – cell-based, Renilla luciferase, cherry-picked, counter-screen for Shn3 inhibitor project, dose response (AID 624133); type: functional
INS1 = test: INS-1E survival protection against cytokine death – cell-based, luminescence, retest, dose response (AID 449756); type: functional; details: Rattus norvegicus;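 also: cell death triggered by IL-1 beta plus TNF-alpha plus IFN-gamma mixture; protective hits raise ATP signal compared with cytokine alone wells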
[13] = IC50 of Artemis nuclease activity blockers – biochemical, fluorescence intensity, dose response (AID 720701); type: functional;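 also: Artemis endonuclease enzyme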
[14] = test system: Streptococcus sp. 'group A'; test: Streptococcus pyogenes SK(-)GAS viability under kanamycin – luminescence, BacTiterGlo, confirmation, counter-screen for streptokinase expression inhibitor project, dose response (AID 1900); type: functional, organism-based
[15] = reduction of Shn3 3'UTR-driven luciferase in osteoblasts – cell-based, Clone20 osteoblasts, firefly luciferase, cherry-picked, dose response (AID 624132); type: functional;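 also: firefly luciferase luminescence from reporter carrying the Shn3 3'UTR in osteoblasts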
Streptococcus = test: GAS UMAA2166 growth inhibition – luminescence, BacTiterGlo, counter-screen for streptokinase expression inhibitor project, dose response (AID 1915); type: functional, organism-based;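 also: potency for reduction of bacterial viability or growth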
[16] = target: Sphingosine 1-phosphate receptor 2 (Homo sapiens, UniProt O95136); test: Dose Response Cell Based Assay for Antagonists of the S1P2 Receptor. [Related pubchem assays: 856, 736 ]; type: functional
Sphingosine 1-phosphate receptor 2, sequence (O95136 whole entry): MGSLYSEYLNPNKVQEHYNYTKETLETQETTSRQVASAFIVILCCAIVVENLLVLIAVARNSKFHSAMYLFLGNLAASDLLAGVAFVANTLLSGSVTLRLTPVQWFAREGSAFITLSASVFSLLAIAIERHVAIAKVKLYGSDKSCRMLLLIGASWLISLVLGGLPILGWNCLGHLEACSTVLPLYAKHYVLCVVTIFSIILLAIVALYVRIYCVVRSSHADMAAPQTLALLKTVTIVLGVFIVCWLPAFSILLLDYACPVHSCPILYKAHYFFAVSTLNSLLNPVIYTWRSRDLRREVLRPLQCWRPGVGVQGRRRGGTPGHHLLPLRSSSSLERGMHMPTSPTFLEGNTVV

[17] = viability loss of HPDE-C7K cells – cell-based, fluorescence, HTS, primary screen (AID 431); type: functional; details: Homo sapiens
[18] = Luminescent dose response cell-based high throughput screening assay for inhibitors of the Janus kinase 2 mutant JAK2V617F. [Related pubchem assays: 1446 (Primary screen.), 1521 (Confirmation assay.), 1486 (Counter screen.)]; type: functional
Paired box protein Pax-8 = Paired box protein Pax-8 (Homo sapiens, UniProt Q06710); test: PAX8 transcriptional activity inhibition in RMG-I – RMG-I cells, luciferase, cherry-pick, dose response (AID 687027); type: functional, cell-based;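 also: luciferase reporter driven by Pax8 target thyroperoxidase promoter measured by SteadyGlo luminescence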
Paired box protein Pax-8, sequence (Q06710 whole entry): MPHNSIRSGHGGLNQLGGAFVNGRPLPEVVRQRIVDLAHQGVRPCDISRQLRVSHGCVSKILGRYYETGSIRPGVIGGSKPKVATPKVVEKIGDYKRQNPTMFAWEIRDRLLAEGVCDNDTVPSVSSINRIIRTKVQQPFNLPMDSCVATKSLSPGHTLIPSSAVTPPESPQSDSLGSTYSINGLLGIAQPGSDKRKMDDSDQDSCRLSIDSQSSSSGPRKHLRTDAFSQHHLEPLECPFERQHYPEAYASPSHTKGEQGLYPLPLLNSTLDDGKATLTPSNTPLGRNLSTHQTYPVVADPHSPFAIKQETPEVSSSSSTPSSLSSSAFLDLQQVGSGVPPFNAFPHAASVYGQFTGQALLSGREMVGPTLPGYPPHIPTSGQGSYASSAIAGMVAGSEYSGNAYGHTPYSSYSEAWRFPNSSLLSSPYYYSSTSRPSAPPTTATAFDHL

[19] = microbe, parasite or virus in culture; type: functional; details: Mycobacterium tuberculosis
[20] = HEK-293T viability loss, compound-treated – cell-based, uHTS hits, cytotoxicity control for B/T-cell NF-kB inhibitor project, dose response (AID 489019); type: functional;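 also: IC50 reflects cytotoxicity as loss of cell viability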
Jurkat = test: blockers of NF-kB activation in T cells – Jurkat, luciferase reporter, luminescence, B- and T-cell, dose response (AID 489004); type: functional, cell-based; details: Homo sapiens;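 also: NF-kB luciferase reporter Jurkat cells stimulated with PMA plus ionomycin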
[21] = general cell-killing toxicity readout – plate reader, dry powder samples, cytotoxicity control for PAX8 inhibitor project, dose response (AID 743021); type: functional, cell-based
[22] = M. tuberculosis H37Rv growth inhibitors, H37Rv strain (AID 1626); type: functional
cells = type: functional
[23] = target: Peroxisome proliferator-activated receptor gamma/Nuclear receptor corepressor 2 (Homo sapiens, UniProt P37231+Q9Y618); test: Counterscreen for NR2E3 inverse agonists: TR-FRET-based biochemical high throughput dose response assay to identify inverse agonists of the interaction between peroxisome proliferator-activated receptor gamma (PPARg) and nuclear receptor co-repressor 2 (NCOR2).; type: functional
[24] = target: Photoreceptor-specific nuclear receptor (Homo sapiens, UniProt Q9Y5X4); test: ligands suppressing NR2E3 nuclear receptor activity – biochemical, TR-FRET, dose response (AID 463256); type: functional
Cytochrome P450 2C19 = Cytochrome P450 2C19 (Homo sapiens, UniProt P33261); test: qHTS Assay for Inhibitors and Substrates of Cytochrome P450 2C19. [Related pubchem assays: 410 ]; type: ADME; details: read-out: Potency
Cytochrome P450 2C19, sequence (P33261 whole entry): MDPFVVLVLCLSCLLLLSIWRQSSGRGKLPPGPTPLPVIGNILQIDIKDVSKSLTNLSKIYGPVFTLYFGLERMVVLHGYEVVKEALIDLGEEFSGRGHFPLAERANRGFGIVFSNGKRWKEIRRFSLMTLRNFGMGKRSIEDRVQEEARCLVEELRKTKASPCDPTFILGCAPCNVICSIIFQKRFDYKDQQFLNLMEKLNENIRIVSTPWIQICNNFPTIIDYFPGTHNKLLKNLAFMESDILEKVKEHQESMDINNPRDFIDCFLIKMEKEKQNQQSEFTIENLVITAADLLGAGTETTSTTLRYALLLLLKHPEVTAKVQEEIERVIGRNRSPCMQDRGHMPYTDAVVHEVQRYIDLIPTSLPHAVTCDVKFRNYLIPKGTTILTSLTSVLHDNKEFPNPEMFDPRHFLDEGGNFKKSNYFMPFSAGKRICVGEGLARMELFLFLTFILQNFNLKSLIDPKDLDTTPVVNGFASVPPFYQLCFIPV

Cytochrome P450 3A4 = Cytochrome P450 3A4 (Homo sapiens, UniProt P08684); details: Potency;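 also: confirmatory qHTS run detecting inhibitors and substrates of CYP3A4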
Cytochrome P450 3A4, sequence (P08684 whole entry): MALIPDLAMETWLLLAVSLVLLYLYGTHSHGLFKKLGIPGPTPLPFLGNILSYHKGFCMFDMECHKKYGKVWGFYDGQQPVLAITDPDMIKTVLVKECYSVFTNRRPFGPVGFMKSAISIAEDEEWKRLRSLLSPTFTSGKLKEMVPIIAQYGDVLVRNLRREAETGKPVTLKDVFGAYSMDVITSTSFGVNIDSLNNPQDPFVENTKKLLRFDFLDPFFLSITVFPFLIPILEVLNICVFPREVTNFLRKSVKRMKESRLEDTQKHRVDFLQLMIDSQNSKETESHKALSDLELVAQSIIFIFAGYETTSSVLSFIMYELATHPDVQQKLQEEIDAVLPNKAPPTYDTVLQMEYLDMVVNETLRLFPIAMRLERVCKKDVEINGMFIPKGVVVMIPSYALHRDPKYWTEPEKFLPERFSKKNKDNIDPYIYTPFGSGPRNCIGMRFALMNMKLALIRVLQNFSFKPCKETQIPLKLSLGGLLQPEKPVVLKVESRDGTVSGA

Aspartyl aminopeptidase, sequence (Q8I2J3 whole entry): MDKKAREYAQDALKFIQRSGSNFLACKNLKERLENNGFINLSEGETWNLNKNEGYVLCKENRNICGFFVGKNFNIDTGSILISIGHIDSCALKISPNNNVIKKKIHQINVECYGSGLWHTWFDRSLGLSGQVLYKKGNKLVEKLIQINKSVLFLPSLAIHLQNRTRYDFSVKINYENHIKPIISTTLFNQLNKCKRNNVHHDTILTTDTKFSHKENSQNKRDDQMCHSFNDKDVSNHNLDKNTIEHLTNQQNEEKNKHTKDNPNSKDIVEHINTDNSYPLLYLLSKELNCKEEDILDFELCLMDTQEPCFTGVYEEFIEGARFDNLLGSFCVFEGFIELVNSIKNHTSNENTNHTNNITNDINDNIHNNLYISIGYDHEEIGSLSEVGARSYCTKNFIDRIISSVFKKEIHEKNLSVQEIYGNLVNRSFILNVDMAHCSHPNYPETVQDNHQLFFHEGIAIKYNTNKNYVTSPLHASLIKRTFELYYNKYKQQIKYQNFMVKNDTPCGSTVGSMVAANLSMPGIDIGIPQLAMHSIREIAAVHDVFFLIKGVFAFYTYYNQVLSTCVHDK

Cc1ccc(-c2cc(O)[nH]n2)c(C)c1
IC50 (Aspartyl aminopeptidase): > 73.5 µM (not active) | EC50 (Protein RecA): 0.502 µM (active) | IC50 (Leucine aminopeptidase): < 1 µM (active) | AC50 [1]: 2.53 µM (active) | IC50 (Procathepsin L): > 59.6 µM (not active)

O=C1NC(=S)NC(=O)C1=NNc1ccc(S(=O)(=O)N2CCc3ccccc32)cc1
CC50 (Vero): > 20 µM (active) | IC50 [2]: 8.57 µM (active) | EC50 [3]: 0.62 µM (active) | EC50 [4]: > 91.2 µM (inactive) | EC50 [5]: > 91.2 µM (inactive) | IC50 [6]: 62.4 µM (active)

CN1CCc2c(sc(/N=C/c3ccco3)c2C(N)=O)C1
IC50 (14-3-3 protein gamma): > 50 µM (not active)

CC(=O)c1cccc(NC(=O)C2C3C=CC(C3=C(c3ccccc3)c3ccccc3)C2C(=O)O)c1 (stereo not given)
IC50 [7]: > 50 µM (active) | IC50 [2]: 8.12 µM (active) | IC50 [8]: > 100 µM (active) | IC50 [6]: 44.5 µM (active)

Cc1sccc1C1C(C#N)=C(N)SC(N)=C1C#N
IC50 (Genome polyprotein): > 49.8 µM (not active)

CCCOP(=O)(c1ccc(N(C)C)cc1)C(Nc1ccccc1)c1ccc(C)cc1 (stereo not given)
EC50 [9]: > 120 µM (not active)

CCn1c(=O)c(C(=O)Nc2nc3ccccc3[nH]2)c(O)c2ccccc21
EC50 [10]: 4.14 µM (active) | IC50 [11]: > 69.5 µM (not active) | AC50 [12]: 4.17 µM (active) | AC50 (INS1): 3.83 µM (active) | IC50 [13]: 3.81 µM (active) | EC50 [14]: 0.992 µM (active) | AC50 [15]: 6.01 µM (active) | EC50 (Streptococcus): 2.99 µM (active) | IC50 [16]: > 50 µM (not active) | EC50 [17]: 5.58 µM (active)

Cc1ccc(Cn2ccs/c2=N\C(=O)CCl)cc1
IC50 [18]: 0.744 µM (active) | AC50 (Paired box protein Pax-8): 1.31 µM (active) | CC50 [19]: 0.299 µM (active) | IC50 [20]: > 80 µM (inactive) | IC50 (Jurkat): 0.49 µM (active) | AC50 [21]: 3.73 µM (active)

N=C1/C(=C/c2ccc(OC(=O)c3ccco3)cc2)C(=O)N=C2SC=CN12
IC50 [22]: > 100 µM (active) | IC50 (cells): 10.9 µM (active)

COc1ccc(N2CC(=O)C(c3nc(-c4ccccc4)cs3)=C2N)cc1
IC50 [23]: 24.7 µM (not active) | IC50 [24]: 13.4 µM (not active)

O=Cc1ccc(OC2C=CC(C#Cc3ccccc3)OC2CO)cc1 (stereo not given)
AC50 (Cytochrome P450 2C19): 0.631 µM (inconclusive) | AC50 (Cytochrome P450 3A4): 3.98 µM (inconclusive)

Source: ChEMBL document CHEMBL1201862, “PubChem BioAssay data set” (2004)
